From ChEMBL document CHEMBL6121046, “Discovery of Novel Hydrazide-Based HDAC3 Inhibitors as Epigenetic Immunomodulators for Cancer Immunotherapy” (J Med Chem, 2025)
Calls of active or inactive are those of the source. No cut-off for these calls is given here.

How the values were obtained:
[1] = biological target: T1, Histone deacetylase 7 (Homo sapiens, UniProt Q8WUI4); assay: Inhibition of human recombinant HDAC7 pre-incubated with compounds for 10 mins measured followed by 60 mins of substrate addition
T1 sequence (Q8WUI4 whole entry): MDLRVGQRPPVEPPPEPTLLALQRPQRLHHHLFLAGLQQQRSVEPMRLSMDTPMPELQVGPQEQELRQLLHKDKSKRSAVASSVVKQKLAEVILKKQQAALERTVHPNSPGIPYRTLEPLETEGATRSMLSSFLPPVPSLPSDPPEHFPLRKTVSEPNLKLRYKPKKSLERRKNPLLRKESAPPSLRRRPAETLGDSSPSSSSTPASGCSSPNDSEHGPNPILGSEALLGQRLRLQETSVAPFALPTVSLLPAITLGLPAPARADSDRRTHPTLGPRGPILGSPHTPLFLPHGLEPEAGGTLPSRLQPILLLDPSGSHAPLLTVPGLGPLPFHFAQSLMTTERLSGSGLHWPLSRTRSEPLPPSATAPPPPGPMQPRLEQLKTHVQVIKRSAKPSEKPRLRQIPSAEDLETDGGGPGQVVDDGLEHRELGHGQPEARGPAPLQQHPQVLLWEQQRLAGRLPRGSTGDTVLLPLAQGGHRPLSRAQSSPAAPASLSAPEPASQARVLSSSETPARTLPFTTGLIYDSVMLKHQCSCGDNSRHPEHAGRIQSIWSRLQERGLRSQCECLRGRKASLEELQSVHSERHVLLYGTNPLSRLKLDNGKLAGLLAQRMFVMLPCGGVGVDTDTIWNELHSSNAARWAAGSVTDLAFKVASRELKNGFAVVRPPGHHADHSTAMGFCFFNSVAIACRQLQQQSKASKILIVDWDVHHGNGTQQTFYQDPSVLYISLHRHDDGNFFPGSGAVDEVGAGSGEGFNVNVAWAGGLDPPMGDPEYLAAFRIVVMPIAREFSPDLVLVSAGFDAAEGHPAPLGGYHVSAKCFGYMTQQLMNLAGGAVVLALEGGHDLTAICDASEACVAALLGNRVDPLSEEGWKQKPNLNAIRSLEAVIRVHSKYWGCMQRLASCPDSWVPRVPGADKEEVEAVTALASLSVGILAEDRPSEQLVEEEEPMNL

[2] = test system: HepG2; assay: Antiproliferative activity against human HepG2 cells measured after 48 hrs incubation by MTT assay relative to control; assay type: functional, cell-based; details: HepG2, 48 h
[3] = test system: MC-38; assay: Antiproliferative activity against mouse MC38 cells measured after 48 hrs incubation by MTT assay relative to control; assay type: functional, cell-based; details: MC-38, 48 h
[4] = test system: MC-38; assay: Induction of apoptosis in mouse MC38 cells assessed as early apoptotic cells at 1 uM measured after 48 hrs by FITC/PI staining based flow cytometry (Rvb =12.27%); assay type: functional
[5] = test system: MC-38; assay: Induction of apoptosis in mouse MC38 cells assessed as late apoptotic cells at 1 uM measured after 48 hrs by FITC/PI staining based flow cytometry (reference value: 5.07%); assay type: functional
[6] = test system: MC-38; assay: Induction of apoptosis in mouse MC38 cells assessed as necrotic cells at 1 uM measured after 48 hrs by FITC/PI staining based flow cytometry (reference value: 0.56%); assay type: functional
[7] = test system: MC-38; assay: Induction of apoptosis in mouse MC38 cells assessed as viable cells at 2 uM measured after 48 hrs by FITC/PI staining based flow cytometry (reference value: 82.07%); assay type: functional; details: read-out: Activity
[8] = test system: MC-38; assay: Induction of apoptosis in mouse MC38 cells assessed as early apoptotic cells at 2 uM measured after 48 hrs by FITC/PI staining based flow cytometry (Rvb =12.27%); assay type: functional
[9] = test system: MC-38; assay: Induction of apoptosis in mouse MC38 cells assessed as late apoptotic cells at 2 uM measured after 48 hrs by FITC/PI staining based flow cytometry (reference value: 5.07%); assay type: functional
[10] = test system: MC-38; assay: Induction of apoptosis in mouse MC38 cells assessed as early apoptotic cells at 4 uM measured after 48 hrs by FITC/PI staining based flow cytometry (Rvb =12.27%); assay type: functional
[11] = test system: MC-38; assay: Induction of apoptosis in mouse MC38 cells assessed as late apoptotic cells at 4 uM measured after 48 hrs by FITC/PI staining based flow cytometry (reference value: 5.07%); assay type: functional
[12] = test system: MC-38; assay: Induction of apoptosis in mouse MC38 cells assessed as necrotic cells at 4 uM measured after 48 hrs by FITC/PI staining based flow cytometry (reference value: 0.56%); assay type: functional
[13] = test system: MC-38; assay: Induction of apoptosis in mouse MC38 cells assessed as viable cells at 8 uM measured after 48 hrs by FITC/PI staining based flow cytometry (reference value: 82.07%); assay type: functional; details: read-out: Activity
[14] = test system: MC-38; assay: Cell cycle arrest in mouse MC38 cells assessed as decrease in accumulation of cells at G0/G1 phase measured after 48 hrs by flow cytometry; assay type: functional, cell-based; details: dose 1-8 µM
[15] = test system: MC-38; assay: Increase in acetylated H3 in mouse MC38 cells at 0.1 to 2 uM measured after 24 hrs incubation by Western blot analysis; assay type: functional, cell-based; details: dose 0.1-2 µM
[16] = test system: B16-F10; assay: Antiproliferative activity against mouse B16-F10 cells at 1 uM measured after 48 hrs incubation by MTT assay relative to control
[17] = test system: MC-38; assay: Induction of ROS production in mouse MC38 cells assessed as increase in intracellular ROS level measured after 48 hrs by flow cytometry; assay type: functional, cell-based
[18] = test system: MC-38; assay: Induction of mitochondrial membrane damage in mouse MC38 cells assessed as decrease in JC-1 aggregation by measuring red fluorescence at 4 uM measured after 48 hrs (reference value: 96.70%); assay type: functional; design: scale not given: the % may be the effect or the level left
[19] = Half life in Sprague-Dawley rat at 20 mg/kg, iv measured upto 12 hrs by LC-MS/MS analysis; assay type: ADME, organism-based; details: in vivo
[20] = Half life in Sprague-Dawley rat at 20 mg/kg, po measured upto 12 hrs by LC-MS/MS analysis; assay type: ADME, organism-based; details: in vivo
[21] = test system: Mus musculus; assay: (§1) Immunomodulatory effect in C57BL/6 mouse allografted mouse MC38 cells assessed as increase in tumor infiltrating lymphocytes by measuring increase in CD4+ T helper cells in mouse spleen at 50 mg/kg, po treated 5 days after cell inoculation 19 th day by flow cytometry analysis (reference value: 10.8%); assay type: functional; details: time 15 day
[22] = test system: Mus musculus; assay: as §1, with “CD8+” for “CD4+”, “tumor in presence of NP19 PD-L1 inhibitor” for “mouse spleen”, “2.32%)” for “10.8%)”; assay type: functional; details: time 15 day
[23] = test system: Mus musculus; assay: Immunomodulatory effect in C57BL/6 mouse allografted with mouse MC38 cells assessed as increase in tumor infiltrating lymphocytes by measuring increase in CD3+ CD4+ cells in presence of NP19 PD-L1 inhibitor at 50 mg/kg, po treated 5 days after cell inoculation 19 th day by flow cytometry analysis; assay type: functional, organism-based; details: time 15.0 day
[24] = test system: MC-38; assay: In vivo antitumor activity against mouse MC38 cells allografted in C57BL/6 mouse assessed as decrease in […] positive cells in tumor at 50 mg/kg, po treated 5 days after cell inoculation 19 th day by immunofluorescence analysis; assay type: functional, organism-based; details: time 15.0 day
[25] = Toxicity in C57BL/6 mouse allografted with mouse MC38 cells assessed as urea nitrogen (BUN) level in serum at 50 mg/kg, po treated 5 days after cell inoculation 19 th day; assay type: organism-based; details: in vivo, 360 h, time 15 day

SMILES | IC50 [1] | IC50 [2] | IC50 [3] | Activity [4] | Activity [5] | Activity [6] | viability at 2 µM [7] | Activity [8] | Activity [9] | Activity [10] | Activity [11] | Activity [12] | viability at 8 µM [13] | Activity [14] | Activity [15] | Activity [16] | also measured
CCCNNC(=O)c1ccc(CNC(=O)c2cnc(-c3cccc4ccccc34)[nH]2)cc1 | > 10000 nM | 370 nM | 2300 nM | 15.8% | 30.57% | 2.9% | 31.3% | 18.6% | 41.1% | 43.9% | 26.83% | 0.92% | 22.2% | Dose-dependent-effect | Active | 55.07% | 
CCCNNC(=O)c1ccc(CNC(=O)c2cnc(-c3ccc4occc4c3)[nH]2)cc1 | > 10000 nM | 330 nM | 1800 nM | 11.97% | 35% | 3.72% | 37.9% | 31.2% | 28.73% | 24.75% | 54.95% | 2.1% | 16.4% | Dose-dependent-effect | Active | 54.57% | Activity [17]: Dose-dependent-effect; Activity [18]: 72.13%; half-life [19]: 1 h; half-life [20]: 3.13 h; Activity [21]: 12.9%; Activity [22]: 7.83%; Activity [23]: Active; Activity [24]: Active; Activity [25]: Non-toxic
